For one series, the system named is potted vines. Kind of series: Tolerance by potted vines in greenhouse; spray application. Conditions: for Potted vines - leaf damage: 4.0 and 8.0 kg/ha. The series is classed as in vivo. The method, then:
(§1) Plastic flowerpots having a volume of 300 cm^3 were filled with a sandy loam and the test plants placed therein (either as seed, as vegetatively reproduced species, or as potted plants, e.g., vines). For preemergence treatment, the active ingredients were suspended or emulsified in water as vehicle and sprayed onto the surface of the soil immediately after sowing by means of finely distributing nozzles. The potted vines were treated by spraying them with the correspondingly diluted liquor. For postemergence treatment, the agents were, as stated above, sprayed in water onto the leaves of the test plants, some liquor also falling onto the soil. In some special cases, solid active ingredients were first dissolved in dimethylformamide and then applied in a total liquor amount of 400 liters of water per hectare. For the postemergence treatment, the plants were first grown to a height of from 3 to 10 cm before being treated. With grasses, the first growth was cut, and the new growth treated 2 to 3 days after cutting. The temperature requirements of the plants were taken into account by placing them in cooler or warmer sections of the greenhouse. The experiments were run for from 4 to 6 weeks, during which time the plants were tended and their reaction to the various treatments was assessed.
(§2) The application rates are given in kg/ha of active ingredient, regardless of the method of application and the amount of water used.
(§3) A 0 to 100 scale was used for the evaluation, 0 denoting normal emergence or no damage (or no inhibition), and 100 denoting non-emergence or complete destruction of the plants. A distinction should be made in the influence on growth between desired changes without any appreciable disadvantageous phytotoxic effects (e.g., purely growth-regulating effects) and those of a phytotoxic herbicical character.

A further series deals with Poa pratensis. As to the kind of experiment: Growth inhibition in lawns, preemergence treatment in the greenhouse. The class given is in vivo. The protocol: as §1, §2, §3
The subject of another series is Sinapis alba. Kind of series: Herbicidal action, pre- and postemergence application in the greenhouse. The series is classed as in vivo. The conditions noted are these: post-emergence, read-out: % damage. The protocol: as §1, §2, §3
The next series relates to Galium apar. The description is as above. The series is classed as in vivo, Galium aparine. Conditions: post-emergence, read-out: % damage. The method, then: as §1, §2, §3
The test system of a further series is Ipom. spp. The description is as above. Conditions: Ipomoea, post-emergence; 3.0 kg/ha POST; read-out: % damage. The series is classed as in vivo, Ipomoea spp. The method, then: as §1, §2, §3
For the next series, the system named is Mentha piper. Described as above. Conditions: post-emergence; 3.0 kg/ha POST; read-out: % damage. The series is classed as in vivo. The method, then:
as §1, §2, §3

The next series relates to Lolium mult. Described as above. The conditions noted are these: Lolium, post-emergence, read-out: % damage. The series is classed as in vivo. The method, then: as §1, §2, §3
The next series relates to Cynodon dact. (seed). The description is as above. The class given is in vivo, Cynodon dactylon. Conditions: appln. rate 2 kg/ha, POST line. The protocol: as §1, §2, §3

Read-outs that look alike come from different tables or passages of the source.

From patent US4259235A, “Tricyclic nitrogenous compounds having string plant growth regulating properties” (BASF Aktiengesellschaft, priority 1977, dated 1981) come the findings set out here.

For orientation: inhibition means the change of the read-out against control, counted positive when it falls.

Take `CCNc1nc(Cl)nc(NCC)n1`: the “Potted vines - leaf damage” value with potted vines is “chlorotic yellow- ing, necroses”. In addition, the entries for the “Change in shoot growth” value in the series with potted vines (4.0 kg/ha) and in the series on potted vines (8.0 kg/ha) were 17.3 cm and 10.3 cm, respectively.

Take `N#Cc1c(Cl)cccc1Cl`: in the series with potted vines, the “Potted vines - leaf damage” value is on record as “slight chlorosis”. For the same compound, the “Change in shoot growth” value in the series with potted vines (4.0 kg/ha) is given as 15.3 cm; with potted vines (8.0 kg/ha) it was 15.7 cm.

For the compound `[O-][N+]1=NC2C3CC(C4C3N4c3ccc(Br)cc3)C21` (centres unmarked), the “Growth after emergence, remark” value in the series on Poa pratensis (0.5 to 4.0 kg/ha) is “very short growth overall; grass compact”. The inhibition at 500 g/ha in the series on Poa pratensis (Poa pratensis, pre-emergence, 0.5 kg/ha, read-out: % growth inhibition after emergence) was 50%. For the same compound, the inhibition at 1000 g/ha with Poa pratensis (Poa pratensis, pre-emergence, 1.0 kg/ha, read-out: % growth inhibition after emergence) was found to be 60%. Moreover, the inhibition at 2000 g/ha in the series on Poa pratensis (Poa pratensis, pre-emergence, 2.0 kg/ha, read-out: % growth inhibition after emergence) was 60%. In the series on Poa pratensis (Poa pratensis, pre-emergence, 4.0 kg/ha, read-out: % growth inhibition after emergence), the inhibition at 4000 g/ha amounted to 70%.

Regarding `BrC1=CC2CC1C1N=NC21` (centres unmarked), the pest or weed control at 3000 g/ha in the series on Sinapis alba (3.0 kg/ha POST) was found to be 100%.

`O=C1NC2C3CC(C(Br)C3Br)C12` (centres unmarked): the pest or weed control at 3000 g/ha amounted to 70% in the series on Galium apar. (3.0 kg/ha POST), 95% with Ipom. spp., 40% in the series with Mentha piper. and 95% in the series on Lolium mult. (3.0 kg/ha POST).

As to `[O-][N+]1=NC2C3CC(C(Br)C3Br)C21` (centres unmarked), the pest or weed control at 3000 g/ha in the series on Galium apar. (3.0 kg/ha POST) was determined as 40%; in the series on Ipom. spp., 60%; with Mentha piper., 95%; in the series with Sinapis alba (3.0 kg/ha PRE) it was 80%; in the series on Lolium mult. (3.0 kg/ha POST) it was 85%; in the series with Lolium mult. (3.0 kg/ha PRE), 80%.

Regarding `Cc1ccc(NC2C(Cl)C3CC2C2N=NC32)cc1` (centres unmarked), the pest or weed control at 3000 g/ha in the series on Galium apar. (3.0 kg/ha POST) stood at 75%; in the series with Ipom. spp. it was 100%; with Mentha piper. it was 100%; in the series with Sinapis alba (3.0 kg/ha PRE), 100%; in the series with Lolium mult. (3.0 kg/ha POST), 100%; with Lolium mult. (3.0 kg/ha PRE) it was 80%.

As to `Cc1ccc(NC2C(Br)C3CC2C2N=NC32)cc1` (centres unmarked), the pest or weed control at 3000 g/ha was 80% in the series on Galium apar. (3.0 kg/ha POST); 100% in the series on Ipom. spp.; 100% with Mentha piper.; 100% in the series with Sinapis alba (3.0 kg/ha PRE); 100% with Lolium mult. (3.0 kg/ha POST); 95% in the series on Lolium mult. (3.0 kg/ha PRE). Moreover, in the series with Cynodon dact. (seed), the “% damage” value was found to be 100%.

For `CC(=O)OC1C2CC(C3N=NC23)C1Nc1ccc(Br)cc1` (centres unmarked), the pest or weed control at 3000 g/ha in the series with Galium apar. is 65%; with Ipom. spp., 85%; in the series on Mentha piper., 95%; in the series on Sinapis alba (3.0 kg/ha PRE) it was 100%; with Lolium mult. (3.0 kg/ha POST) it was 100%; with Lolium mult. (3.0 kg/ha PRE) it was 80%.
